The values below come from ChEMBL document CHEMBL5465560, “Selectivity Literature for EUbOPEN Chemogenomic Library” (2024).

The target of assay [1] is Tyrosine-protein kinase Lck (Homo sapiens, UniProt P06239). Put plainly: Selectivity interaction (Kinase panel (Z-LYTE Assay)) EUB0001632a LCK. Conditions: at 10 µM.
Assay [2] concerns the target Rho-associated protein kinase 2 (Homo sapiens, UniProt O75116). Put plainly: Selectivity interaction (Kinase panel (Z-LYTE Assay)) EUB0001632a ROCK2. As to conditions: at 10 µM.
The target of assay [3] is T1, Mitogen-activated protein kinase kinase kinase 19 (Homo sapiens) (UniProt Q56UN5).
T1 sequence (whole entry): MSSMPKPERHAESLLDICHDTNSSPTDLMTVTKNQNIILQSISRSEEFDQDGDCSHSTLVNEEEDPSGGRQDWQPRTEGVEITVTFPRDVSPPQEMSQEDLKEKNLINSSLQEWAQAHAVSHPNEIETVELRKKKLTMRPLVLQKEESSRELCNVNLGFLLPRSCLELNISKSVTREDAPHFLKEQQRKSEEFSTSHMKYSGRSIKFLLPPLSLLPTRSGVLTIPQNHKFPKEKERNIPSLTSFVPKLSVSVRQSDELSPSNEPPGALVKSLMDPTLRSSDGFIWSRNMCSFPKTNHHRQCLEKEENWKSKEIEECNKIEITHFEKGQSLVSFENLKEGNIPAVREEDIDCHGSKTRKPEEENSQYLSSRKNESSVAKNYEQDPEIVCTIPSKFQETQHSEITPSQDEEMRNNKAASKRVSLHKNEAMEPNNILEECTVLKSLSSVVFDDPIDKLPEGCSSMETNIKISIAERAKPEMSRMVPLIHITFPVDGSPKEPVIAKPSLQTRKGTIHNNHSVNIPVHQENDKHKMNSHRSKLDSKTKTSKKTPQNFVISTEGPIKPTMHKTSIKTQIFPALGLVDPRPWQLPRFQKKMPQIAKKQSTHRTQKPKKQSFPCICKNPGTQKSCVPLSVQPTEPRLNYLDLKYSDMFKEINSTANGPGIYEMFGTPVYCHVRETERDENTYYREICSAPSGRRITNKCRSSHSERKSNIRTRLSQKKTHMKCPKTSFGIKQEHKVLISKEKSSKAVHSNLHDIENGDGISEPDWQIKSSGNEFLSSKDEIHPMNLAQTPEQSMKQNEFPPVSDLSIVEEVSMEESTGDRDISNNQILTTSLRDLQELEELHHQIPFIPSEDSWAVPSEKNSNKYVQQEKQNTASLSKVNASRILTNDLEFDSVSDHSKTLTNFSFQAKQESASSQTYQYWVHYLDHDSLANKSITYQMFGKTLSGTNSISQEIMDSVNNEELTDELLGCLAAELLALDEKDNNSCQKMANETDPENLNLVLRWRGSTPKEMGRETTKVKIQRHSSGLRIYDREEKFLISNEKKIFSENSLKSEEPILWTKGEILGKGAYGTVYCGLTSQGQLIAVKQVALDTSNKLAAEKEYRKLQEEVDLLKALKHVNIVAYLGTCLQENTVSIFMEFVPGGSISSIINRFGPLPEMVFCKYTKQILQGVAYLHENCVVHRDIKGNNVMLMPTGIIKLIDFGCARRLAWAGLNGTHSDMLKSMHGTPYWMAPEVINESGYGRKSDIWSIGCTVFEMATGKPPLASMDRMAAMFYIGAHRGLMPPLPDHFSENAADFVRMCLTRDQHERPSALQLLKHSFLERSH
Put plainly: Selectivity interaction (KinomeScan (DiscoverX)) EUB0000666a MAP3K19. As to conditions: at 10 µM.

Assay [4] deals with T2, Histone-lysine N-methyltransferase SUV39H1 (Homo sapiens) (UniProt O43463).
T2 sequence (whole entry): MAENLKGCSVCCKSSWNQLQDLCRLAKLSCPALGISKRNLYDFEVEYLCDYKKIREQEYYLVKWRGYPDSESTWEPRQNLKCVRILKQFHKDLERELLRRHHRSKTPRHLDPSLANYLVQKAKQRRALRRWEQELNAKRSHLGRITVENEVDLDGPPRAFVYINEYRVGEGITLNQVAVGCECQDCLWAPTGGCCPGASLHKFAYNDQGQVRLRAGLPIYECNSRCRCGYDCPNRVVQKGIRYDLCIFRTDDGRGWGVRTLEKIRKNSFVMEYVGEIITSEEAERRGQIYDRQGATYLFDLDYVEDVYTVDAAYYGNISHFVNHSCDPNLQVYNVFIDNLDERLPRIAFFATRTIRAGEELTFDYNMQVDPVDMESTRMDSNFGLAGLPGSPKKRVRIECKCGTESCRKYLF
Put plainly: Selectivity interaction (Methyltransferase screen (Scintillation proximity assays)) EUB0000255b SUV39H1.

The target of assay [5] is T3, Serine/threonine-protein kinase Nek9 (Homo sapiens) (UniProt Q8TD19).
T3 sequence (whole entry): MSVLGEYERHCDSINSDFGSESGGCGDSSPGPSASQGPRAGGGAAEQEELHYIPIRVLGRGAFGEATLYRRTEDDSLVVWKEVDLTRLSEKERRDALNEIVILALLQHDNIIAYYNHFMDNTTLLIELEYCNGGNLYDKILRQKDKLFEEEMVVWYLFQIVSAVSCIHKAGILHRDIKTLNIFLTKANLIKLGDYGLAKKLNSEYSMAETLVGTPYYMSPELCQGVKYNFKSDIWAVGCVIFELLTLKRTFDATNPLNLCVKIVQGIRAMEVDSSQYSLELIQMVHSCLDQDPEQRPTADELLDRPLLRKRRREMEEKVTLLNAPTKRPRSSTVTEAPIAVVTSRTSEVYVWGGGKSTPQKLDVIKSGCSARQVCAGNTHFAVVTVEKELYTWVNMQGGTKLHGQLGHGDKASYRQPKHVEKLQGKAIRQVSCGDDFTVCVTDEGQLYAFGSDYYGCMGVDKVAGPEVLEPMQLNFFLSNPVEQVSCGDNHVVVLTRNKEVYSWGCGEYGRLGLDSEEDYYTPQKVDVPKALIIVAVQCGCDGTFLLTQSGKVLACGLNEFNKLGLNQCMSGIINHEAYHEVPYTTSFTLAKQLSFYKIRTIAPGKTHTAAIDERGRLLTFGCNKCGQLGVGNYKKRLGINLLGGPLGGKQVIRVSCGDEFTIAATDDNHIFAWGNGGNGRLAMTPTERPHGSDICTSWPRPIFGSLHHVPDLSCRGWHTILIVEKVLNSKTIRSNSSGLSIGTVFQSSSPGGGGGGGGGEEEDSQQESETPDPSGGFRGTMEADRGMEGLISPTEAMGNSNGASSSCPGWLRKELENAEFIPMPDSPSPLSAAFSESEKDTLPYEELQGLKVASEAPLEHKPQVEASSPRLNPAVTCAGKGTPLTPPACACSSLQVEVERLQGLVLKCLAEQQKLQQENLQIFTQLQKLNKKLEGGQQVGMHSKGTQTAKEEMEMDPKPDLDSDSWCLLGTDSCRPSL
Put plainly: Selectivity interaction (Kinase panel (Invitrogen)) EUB0000639a NEK9. Conditions: at 200 nM.

Assay [6] deals with Aurora kinase B (Homo sapiens, UniProt Q96GD4). Put plainly: Selectivity interaction (Enzymatic assay) EUB0001550a AURKB.
Chain of Aurora kinase B (Q96GD4 whole entry): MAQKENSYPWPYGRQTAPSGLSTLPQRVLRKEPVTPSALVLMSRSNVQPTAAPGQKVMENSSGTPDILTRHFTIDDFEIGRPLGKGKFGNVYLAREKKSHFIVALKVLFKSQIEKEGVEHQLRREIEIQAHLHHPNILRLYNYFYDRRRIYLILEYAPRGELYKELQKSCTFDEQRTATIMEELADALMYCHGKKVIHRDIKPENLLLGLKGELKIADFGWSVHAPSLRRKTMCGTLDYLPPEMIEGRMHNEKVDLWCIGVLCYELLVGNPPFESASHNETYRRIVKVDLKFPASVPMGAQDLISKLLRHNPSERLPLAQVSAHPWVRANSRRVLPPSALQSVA
The target of assay [7] is 5'-AMP-activated protein kinase catalytic subunit alpha-2 (Homo sapiens) (UniProt P54646). Put plainly: Selectivity interaction (KinomeScan (DiscoverX)) EUB0000595a PRKAA2. As to conditions: at 10 µM.
Chain of 5'-AMP-activated protein kinase catalytic subunit alpha-2 (Homo sapiens) (P54646 whole entry, looked up): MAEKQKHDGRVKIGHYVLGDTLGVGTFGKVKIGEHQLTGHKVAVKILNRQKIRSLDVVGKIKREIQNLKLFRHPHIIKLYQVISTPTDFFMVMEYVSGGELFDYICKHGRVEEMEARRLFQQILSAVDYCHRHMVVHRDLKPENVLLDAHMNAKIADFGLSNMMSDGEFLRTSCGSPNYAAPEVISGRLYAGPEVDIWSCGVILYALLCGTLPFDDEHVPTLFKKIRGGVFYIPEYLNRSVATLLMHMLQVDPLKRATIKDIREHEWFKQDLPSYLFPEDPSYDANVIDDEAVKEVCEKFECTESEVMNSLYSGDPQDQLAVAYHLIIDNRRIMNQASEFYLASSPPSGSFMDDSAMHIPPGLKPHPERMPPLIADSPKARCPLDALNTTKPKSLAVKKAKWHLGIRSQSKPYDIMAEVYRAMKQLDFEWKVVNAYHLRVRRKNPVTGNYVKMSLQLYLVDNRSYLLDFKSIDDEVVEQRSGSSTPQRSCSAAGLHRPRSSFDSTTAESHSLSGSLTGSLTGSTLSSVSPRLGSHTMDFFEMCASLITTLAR

Structures are written as SMILES. Bounds are passed on as bounds.

Chain of Rho-associated protein kinase 2 (O75116 whole entry, looked up): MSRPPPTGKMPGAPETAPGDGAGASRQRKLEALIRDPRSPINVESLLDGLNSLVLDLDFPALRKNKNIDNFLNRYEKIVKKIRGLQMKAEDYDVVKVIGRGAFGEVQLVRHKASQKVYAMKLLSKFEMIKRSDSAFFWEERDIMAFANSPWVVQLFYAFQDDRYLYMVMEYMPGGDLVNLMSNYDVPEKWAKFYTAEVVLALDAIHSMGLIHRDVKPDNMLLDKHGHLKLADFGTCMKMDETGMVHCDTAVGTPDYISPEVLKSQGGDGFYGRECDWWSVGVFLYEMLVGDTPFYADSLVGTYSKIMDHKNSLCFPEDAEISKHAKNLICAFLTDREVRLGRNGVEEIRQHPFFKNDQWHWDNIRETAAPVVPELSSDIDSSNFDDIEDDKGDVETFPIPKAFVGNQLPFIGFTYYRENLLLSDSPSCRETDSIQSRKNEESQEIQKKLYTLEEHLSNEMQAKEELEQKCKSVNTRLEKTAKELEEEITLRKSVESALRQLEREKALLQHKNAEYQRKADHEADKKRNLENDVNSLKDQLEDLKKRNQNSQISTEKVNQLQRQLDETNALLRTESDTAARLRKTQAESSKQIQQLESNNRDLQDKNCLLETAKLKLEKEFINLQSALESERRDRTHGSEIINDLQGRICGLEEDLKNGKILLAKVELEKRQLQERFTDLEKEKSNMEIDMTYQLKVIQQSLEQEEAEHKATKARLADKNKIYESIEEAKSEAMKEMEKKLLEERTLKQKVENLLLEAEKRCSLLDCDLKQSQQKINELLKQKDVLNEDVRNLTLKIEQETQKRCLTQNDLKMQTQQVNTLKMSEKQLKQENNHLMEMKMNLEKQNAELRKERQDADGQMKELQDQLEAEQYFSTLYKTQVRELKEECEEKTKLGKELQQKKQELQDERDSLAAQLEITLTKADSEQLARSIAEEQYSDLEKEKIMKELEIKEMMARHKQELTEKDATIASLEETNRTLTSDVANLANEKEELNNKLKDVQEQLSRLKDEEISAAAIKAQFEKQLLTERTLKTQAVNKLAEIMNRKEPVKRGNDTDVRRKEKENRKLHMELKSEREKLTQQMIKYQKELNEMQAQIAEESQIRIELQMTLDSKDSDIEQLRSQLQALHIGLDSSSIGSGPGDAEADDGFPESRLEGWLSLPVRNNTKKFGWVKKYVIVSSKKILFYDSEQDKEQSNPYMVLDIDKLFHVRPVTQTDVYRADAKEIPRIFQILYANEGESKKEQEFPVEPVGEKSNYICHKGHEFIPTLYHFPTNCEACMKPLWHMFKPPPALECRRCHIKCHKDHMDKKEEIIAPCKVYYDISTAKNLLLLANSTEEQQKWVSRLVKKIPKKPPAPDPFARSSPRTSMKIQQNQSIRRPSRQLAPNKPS
Chain of Tyrosine-protein kinase Lck (P06239 2-509 limits assumed): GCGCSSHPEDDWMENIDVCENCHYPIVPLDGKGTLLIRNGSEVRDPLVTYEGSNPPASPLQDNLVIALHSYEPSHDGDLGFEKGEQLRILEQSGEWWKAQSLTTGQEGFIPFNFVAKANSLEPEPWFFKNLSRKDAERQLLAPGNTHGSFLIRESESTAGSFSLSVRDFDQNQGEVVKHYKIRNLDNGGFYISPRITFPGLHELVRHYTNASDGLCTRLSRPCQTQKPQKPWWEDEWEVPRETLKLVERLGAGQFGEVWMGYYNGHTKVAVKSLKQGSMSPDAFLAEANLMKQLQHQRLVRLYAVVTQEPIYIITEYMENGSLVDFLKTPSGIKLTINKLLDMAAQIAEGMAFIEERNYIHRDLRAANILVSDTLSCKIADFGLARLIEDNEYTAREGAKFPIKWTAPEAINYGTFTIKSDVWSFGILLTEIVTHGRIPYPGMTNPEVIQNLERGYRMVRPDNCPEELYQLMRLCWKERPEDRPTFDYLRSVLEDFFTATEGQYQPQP

With `Cn1cc(-n2cnc3c(NCc4nc5cc(Cl)c(Cl)cc5[nH]4)nc(N4CCOCC4)nc32)cn1`, the % of control in assay [1] came to 11.9%; in assay [2], 3.57%.
`O=C(NOC[C@H](O)CO)c1ccc(F)c(F)c1Nc1ccc(I)cc1F` registered a % of control in assay [3] of 100%.
As to `COCCN1CCC(c2cc(CN(C)C(=O)c3cccc(Oc4ccccc4)c3)ccn2)CC1`, the % activity in assay [4] (at 1 µM) is above 95%; in assay [4] (at 10 µM), above 90%.
Take `CC[C@@H]1[C@H](F)C(=O)N[C@@H]1COc1nccc2cc(C(N)=O)c(OC)cc12` [ZIMLOVISERTIB]: the % of inhibition in assay [5] came to 2.82%.
For the molecule `CN(C)CC#Cc1ccc2[nH]c3c(c2c1)-c1nc(N)ncc1CCC3`, 1400 nM corresponded to half-maximal inhibition in assay [6] (IC50).
The molecule `COCC(=O)NC/C=C/c1ccc2ncnc(Nc3ccc(Oc4ccc(C)nc4)c(C)c3)c2c1` [CP-724714] gave a % of control in assay [7] of 100%.
